Patent US9920075B2, “Triazolopyridine and triazolopyrimidine inhibitors of myeloperoxidase” (BRISTOL-MYERS SQUIBB COMPANY, priority 2014, dated 2018)
“And” between values parts separate entries of the source, which are not always exact repeats. Identical values can stand only once.

Assays:
Type in all cases: biochemical
myeloperoxidase (MPO) [1] = target: T1, myeloperoxidase (MPO) (Homo sapiens, UniProt P05164); assay: MPO chlorination assay (APF assay)
T1 sequence (P05164 49-745): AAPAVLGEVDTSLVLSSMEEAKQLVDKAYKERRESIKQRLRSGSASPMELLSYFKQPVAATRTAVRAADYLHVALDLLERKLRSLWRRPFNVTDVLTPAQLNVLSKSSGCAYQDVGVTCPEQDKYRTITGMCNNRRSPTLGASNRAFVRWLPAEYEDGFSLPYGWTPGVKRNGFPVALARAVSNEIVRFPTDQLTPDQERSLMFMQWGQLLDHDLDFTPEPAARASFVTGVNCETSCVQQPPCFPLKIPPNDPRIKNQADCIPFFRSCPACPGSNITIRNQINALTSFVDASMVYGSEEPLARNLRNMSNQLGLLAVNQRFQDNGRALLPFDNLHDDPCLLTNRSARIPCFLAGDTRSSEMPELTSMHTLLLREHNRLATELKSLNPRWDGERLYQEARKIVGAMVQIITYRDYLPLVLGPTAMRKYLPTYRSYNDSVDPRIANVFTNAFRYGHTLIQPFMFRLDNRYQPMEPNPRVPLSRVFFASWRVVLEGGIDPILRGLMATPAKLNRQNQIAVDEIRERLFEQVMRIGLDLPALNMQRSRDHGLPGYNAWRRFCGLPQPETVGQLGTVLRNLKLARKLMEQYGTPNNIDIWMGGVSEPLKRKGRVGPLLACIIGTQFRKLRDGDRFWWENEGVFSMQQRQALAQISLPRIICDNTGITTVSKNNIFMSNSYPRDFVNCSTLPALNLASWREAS
Procedure: (§1) [formula] where A=minimal Y value (activity level of inhibited sample), B=maximal Y value (activity level of uninhibited sample), C=Log IC50, D=Hill Slope, x=concentration of inhibitor. MPO Chlorination Assay (APF Assay)
MPO chlorination activity was measured in 100 mM KPi (pH 7.4) by utilizing the non-fluorescent reagent Aminophenyl fluorescein (APF, Invitrogen Cat. #A36003). APF is cleaved by (—OCl) to yield the fluorescent compound fluorescein. […] Enzyme, inhibitor, and chloride were preincubated for ten minutes at room temperature.
After the ten minute preincubation, 25 μL of an APF mixture containing […], 120 mM NaCl and 10 μM H2O2 was added to the plate using the internal dispensing system of a Hammatsu FDSS 6000. […] IC50 values for inhibitors were calculated by taking the slope of the linear portion of the kinetic measurement (20 seconds to ˜80-120 secs).
(§2) IC50 values were calculated by determining the slope of the linear portion of the kinetic trace (180-540 secs), and using that calculated slope to determine % inhibition occurring at each concentration of inhibitor using the following equation:
(§3) [formula] where A=minimal Y value (activity level of inhibited sample), B=maximal Y value (activity level of uninhibited sample), C=Log IC50, D=Hill Slope, x=concentration of inhibitor. EPX Bromination Assay

EPX = target: T2, EPX (Homo sapiens, UniProt P11678); assay: EPX bromination assay; details: EPX bromination, 100 mM KPi pH 7.4, ten minute preincubation; read-out: EPX IC50
T2 construct: purchased Lee Biosolutions 342-60
Procedure: as §3
EPX bromination activity was measured in 100 mM KPi (pH 7.4) by monitoring the H2O2 catalyzed formation of 3-bromo tyrosine from tyrosine and potassium bromide. […] Enzyme and compound were preincubated for ten minutes at room temperature.
The reaction was allowed to proceed for 15 minutes, at which time it was quenched with 10 μL of 20% TCA. The final concentrations of all components were 0.3 μM EPX, 100 μM tyrosine, […], 5 μM H2O2, 0.1% DMSO, 2.0% TCA.
[formula] where A=minimal Y value (activity level of inhibited sample), B=maximal Y value (activity level of uninhibited sample), C=Log IC50, D=Hill Slope, x=concentration of inhibitor.
The column was maintained at 60° C. Samples were eluted using a gradient of 0%-100% B over 2.5 minutes, followed by equilibration with 100% A for 1 minute where A consisted of 0.1% TFA and B consisted of 90% MeOH/0.1% TFA at a flow rate of 0.6 mL/min.

myeloperoxidase (MPO) [2] = target: T1, myeloperoxidase (MPO); assay: MPO peroxidation assay (Amplex Red assay)
Procedure: MPO Peroxidation Assay (Amplex Red Assay)
MPO peroxidation activity was measured in 100 mM KPi (pH 7.4) by utilizing the non-fluorescent reagent Amplex Red (Invitrogen Cat. #A12222) which can be oxidized to the highly fluorescent resorufin. Amplex Red is oxidized by the peroxidase action of MPO to resorufin. […] Enzyme and compound were preincubated for ten minutes at room temperature.
After the ten minute preincubation, 25 μL of an Amplex Red mixture containing 200 μM Amplex Red and 10 mM H2O2 was added to the plate.
as §2, §1

[3] = MPO chlorination, 100 mM KPi pH 7.4, ten minute preincubation, read-out: APF Assay IC50 value
[4] = MPO peroxidation, 100 mM KPi pH 7.4, ten minute preincubation, read-out: Amplex Red Assay IC50 value
[5] = MPO peroxidation (Amplex Red), ranges given, read-out: MPO peroxidation assay IC50 values (binned)

T2 sequence (P11678 251-715 limits assumed): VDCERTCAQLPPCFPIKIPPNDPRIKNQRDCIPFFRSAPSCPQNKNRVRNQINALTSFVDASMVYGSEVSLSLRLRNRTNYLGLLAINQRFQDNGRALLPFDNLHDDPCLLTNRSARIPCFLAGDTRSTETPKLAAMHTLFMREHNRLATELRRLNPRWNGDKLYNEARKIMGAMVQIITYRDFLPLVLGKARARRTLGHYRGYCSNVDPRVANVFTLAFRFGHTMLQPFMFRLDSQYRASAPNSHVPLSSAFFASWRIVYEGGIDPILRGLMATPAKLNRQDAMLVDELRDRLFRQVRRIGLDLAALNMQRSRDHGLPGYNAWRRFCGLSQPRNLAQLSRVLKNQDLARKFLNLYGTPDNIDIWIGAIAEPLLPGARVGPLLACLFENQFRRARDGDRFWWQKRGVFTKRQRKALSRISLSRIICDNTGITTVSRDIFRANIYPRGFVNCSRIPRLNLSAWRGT
T2 sequence (P11678 140-250 limits assumed): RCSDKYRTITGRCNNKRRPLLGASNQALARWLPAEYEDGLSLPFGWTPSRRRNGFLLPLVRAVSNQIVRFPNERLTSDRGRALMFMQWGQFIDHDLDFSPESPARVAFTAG

Row | Structure (SMILES) | IC50 (myeloperoxidase (MPO) [1]; [3]) | IC50 (myeloperoxidase (MPO) [2]; [4]) | IC50 (myeloperoxidase (MPO) [2]; [5]) | also measured
1 | CCn1nc(COc2cc(N)nc3[nH]nnc23)cc1C(F)(F)F [Example 6, 7-((1-Ethyl-5-(trifluoromethyl)-1H-pyrazol-3-yl)methoxy)-3H-[1,2,3]triazolo[4,5-b]pyridin-5-amine] | 130 nM | 20 nM |  | IC50 (EPX): 70 nM
2 | Cc1nn(-c2cccc(F)c2)nc1COc1cc(N)nc2[nH]nnc12 [Example 12, 7-((2-(3-Fluorophenyl)-5-methyl-2H-1,2,3-triazol-4-yl)methoxy)-3H-[1,2,3]triazolo[4,5-b]pyridin-5-amine] | 80 nM | 20 nM |  | 
3 | COc1cccc(-n2nc(C)c(COc3cc(N)nc4[nH]nnc34)n2)c1 [Example 13, 7-((2-(3-Methoxyphenyl)-5-methyl-2H-1,2,3-triazol-4-yl)methoxy)-3H-[1,2,3]triazolo[4,5-b]pyridin-5-amine] | 100 nM | 30 nM |  | 
4 | Nc1cc(OCc2cc(-c3ccccc3)no2)c2nn[nH]c2n1 [Example 14, 7-((3-Phenylisoxazol-5-yl)methoxy)-3H-[1,2,3]triazolo[4,5-b]pyridin-5-amine] |  |  |  | IC50 (myeloperoxidase (MPO) [1]): 120 nM; IC50 (myeloperoxidase (MPO) [2]; Amplex Red Assay IC50 value, MPO peroxidation, 100 mM KPi pH 7.4, ten minute preincubation): 120 nM
5 | Nc1cc(OCc2cncn2Cc2ccccc2)c2nn[nH]c2n1 [Example 28, 7-((1-Benzyl-1H-imidazol-5-yl)methoxy)-3H-[1,2,3]triazolo[4,5-b]pyridin-5-amine] | 1190 nM | 2400 nM |  | 
6 | Nc1cc(OCC2COc3ccccc3O2)c2nn[nH]c2n1 (stereo not drawn) [Example 32, 7-((2,3-Dihydrobenzo[b][1,4]dioxin-2-yl)methoxy)-3H-[1,2,3]triazolo[4,5-b]pyridin-5-amine] | 320 nM | 610 nM |  | 
7 | Nc1cc(OCC2COc3ccccc3C2)c2nn[nH]c2n1 (stereo not drawn) [Example 34, 7-(Chroman-3-ylmethoxy)-3H-[1,2,3]triazolo[4,5-b]pyridin-5-amine] | 790 nM | 1390 nM |  | 
8 | COc1cc(-c2nc(COc3cc(N)nc4[nH]nnc34)c(C)o2)ccc1Cl [Example 43, 7-((2-(4-Chloro-3-methoxyphenyl)-5-methyloxazol-4-yl)methoxy)-3H-[1,2,3]triazolo[4,5-b]pyridin-5-amine] | 1520 nM | 760 nM |  | 
9 | Cc1oc(-c2ccc(S(C)(=O)=O)cc2)nc1CSc1cc(N)nc2[nH]nnc12 [Example 46, 7-((5-Methyl-2-(4-(methylsulfonyl)phenyl)oxazol-4-yl)methylthio)-3H-[1,2,3]triazolo[4,5-b]pyridin-5-amine] | 470 nM | 90 nM |  | 
10 | Nc1cc(OCc2nn(Cc3ccccc3)c3ccccc23)c2nn[nH]c2n1 [Example 53, 7-((1-Benzyl-1H-indazol-3-yl)methoxy)-3H-[1,2,3]triazolo[4,5-b]pyridin-5-amine] | 100 nM | 80 nM |  | 
11 | CCc1nn(-c2ccccc2)nc1COc1cc(N)nc2[nH]nnc12 [Example 57, 7-((5-Ethyl-2-phenyl-2H-1,2,3-triazol-4-yl)methoxy)-3H-[1,2,3]triazolo [4,5-b]pyridin-5-amine] | 320 nM | 80 nM |  | 
12 | Cc1nn(-c2ccc(N3CCNC(=O)C3)nc2)nc1COc1cc(N)nc2[nH]nnc12 [Example 61, 4-(5-(4-(((5-Amino-3H-[1,2,3]triazolo[4,5-b]pyridin-7-yl)oxy)methyl)-5-methyl-2H-1,2,3-triazol-2-yl)pyridin-2-yl)piperazin-2-one] | 910 nM | 90 nM |  | 
13 | Nc1cc(OCC2CCN(C3=NC=CCN3)CC2)c2nn[nH]c2n1 [Example 85, 7-((1-(1,6-Dihydropyrimidin-2-yl)piperidin-4-yl)methoxy)-3H-[1,2,3]triazolo[4,5-b]pyridin-5-amine] | 640 nM | 1080 nM |  | 
14 | CS(=O)(=O)N1CCCCC1COc1cc(N)nc2[nH]nnc12 (stereo not drawn) [Example 86, 7-((1-(Methylsulfonyl)piperidin-2-yl)methoxy)-3H-[1,2,3]triazolo[4,5-b]pyridin-5-amine] | 1100 nM | 2030 nM |  | 
15 | Nc1cc(OCc2cccnc2Cl)c2nn[nH]c2n1 [Example 90, 7-((2-Chloropyridin-3-yl)methoxy)-3H-[1,2,3]triazolo[4,5-b]pyridin-5-amine] | 50 nM | 110 nM |  | 
16 | Nc1nc(OCc2cccc3occc23)c2nn[nH]c2n1 [Example 112, 7-(Benzofuran-4-ylmethoxy)-3H-[1,2,3]triazolo[4,5-d]pyrimidin-5-amine] |  |  | 60 to 150 nM | 

Further lines, with some results ahead:

Row | IC50 (myeloperoxidase (MPO) [1]; [3]) | IC50 (myeloperoxidase (MPO) [2]; [4]) | IC50 (myeloperoxidase (MPO) [2]; [5]) | Structure (SMILES) | also measured
17 |  |  | 60 to 150 nM | Nc1nc(OCc2cccnc2)c2nn[nH]c2n1 [Example 113, 7-(pyridin-3-ylmethoxy)-3H-[1,2,3] triazolo[4,5-d]pyrimidin-5-amine] | 
18 |  |  | 60 to 150 nM | Nc1nc(OCc2cccc3cccnc23)c2nn[nH]c2n1 [Example 114, 7-(quinolin-8-ylmethoxy)-3H-[1,2,3] triazolo[4,5-d]pyrimidin-5-amine] | 
19 |  |  | 60 to 150 nM | Nc1nc(OCc2ccc3ncccc3c2)c2nn[nH]c2n1 [Example 115, 7-(quinolin-6-ylmethoxy)-3H-[1,2,3] triazolo[4,5-d]pyrimidin-5-amine] | 
20 |  |  | 60 to 150 nM | Nc1nc(OCc2cccc3ncccc23)c2nn[nH]c2n1 [Example 116, 7-(quinolin-5-ylmethoxy)-3H-[1,2,3] triazolo[4,5-d]pyrimidin-5-amine] | 
21 |  |  | 60 to 150 nM | COc1ccc(-c2cncc(COc3nc(N)nc4[nH]nnc34)c2)cc1 [Example 118, 7-((5-(4-methoxyphenyl)pyridin-3-yl)methoxy)-3H-[1,2,3]triazolo[4,5-d] pyrimidin-5-amine] | 
22 |  |  | 60 to 150 nM | Nc1nc(OCc2cc(Cl)nc(Cl)c2)c2nn[nH]c2n1 [Example 119, 7-((2,6-dichloropyridin-4-yl)methoxy)-3H-[1,2,3]triazolo[4,5-d]pyrimidin-5-amine] | 
23 |  |  | 150 to 1000 nM | Nc1nc(OCc2ccc(Cl)nc2)c2nn[nH]c2n1 [Example 120, 7-((6-chloropyridin-3-yl)methoxy)-3H-[1,2,3]triazolo[4,5-d]pyrimidin-5-amine] | 
24 |  |  | 60 to 150 nM | Nc1nc(OCc2cn(-c3ccccc3)nn2)c2nn[nH]c2n1 [Example 121, 7-((1-phenyl-1H-1,2,3-triazol-4-yl)methoxy)-3H-[1,2,3]triazolo[4,5-d] pyrimidin-5-amine] | 
25 |  |  | 60 to 150 nM | Nc1nc(OCc2ccc(Oc3ccccc3)nc2)c2nn[nH]c2n1 [Example 122, 7-((6-phenoxypyridin-3-yl)methoxy)-3H-[1,2,3]triazolo[4,5-d]pyrimidin-5-amine] | 
26 |  |  | 60 to 150 nM and 150 to 1000 nM | Nc1nc(OCc2csc(-c3cccc(Cl)c3Cl)n2)c2nn[nH]c2n1 [Example 124, 7-((2-(2,3-dichlorophenyl)thiazol-4-yl)methoxy)-3H-[1,2,3]triazolo[4,5-d] pyrimidin-5-amine] | 
